{"source": "patent US4649143A", "about": "“Methods and compositions for treating protozoal infections with a novel antibiotic” (priority 1984, dated 1987)", "key": {"Solubility in water": {"assay": "Solubility in water", "type": "physicochemical", "settings": "compound and its acceptable salts"}, "Eimeria acervulina": {"system": "Eimeria acervulina", "assay": "Anticoccidial evaluation in infected chicks, intestinal lesions", "type": "in vivo, Eimeria acervulina; chicks", "settings": "0.5 ppm to 5.0 ppm in diet", "experimental": "(§1) The poultry diet employed in the test is as follows: The vitamin-amino acid premix in the above feed composition is prepared from the following formulation. The expressions of quantity relate to units per kilogram of the finished feed composition. A mixed inoculum of 5000 sporulated oocysts of Eimeria acervulina and a sufficient number of oocysts of Eimeria tenella to produce 60% to 75% mortality in untreated controls were given to one-day-old chicks, by direct inoculation into the crops of all chicks. The chicks were given free access to feed and water during the entire test period. Two days before inoculation, medicated feed with several levels of drug was presented to the various groups of chicks. Seven days after inoculation, the tests were terminated and the chicks were weighed, necropsied, and their intestinal tracts examined for lesions."}, "Micrococcus luteus": {"system": "Micrococcus luteus", "assay": "In vitro antimicrobial spectrum, agar plate dilution MIC", "type": "cell-based", "settings": "PC 1001, Mueller-Hinton agar, 18 hours, 35° C.", "experimental": "(§2) The in vitro antimicrobial spectrum of LL-D42067β was determined by the agar plate dilution method with Mueller-Hinton agar and an inoculum of each test organism of approximately 10^4 colony forming units delivered by the Steers replicating device. The minimal inhibitory concentration (MIC) in mcg/ml was defined as the lowest concentration of LL-D42067β that inhibited visible growth after 18 hours incubation at 35° C."}, "Bacillus subtilis": {"system": "Bacillus subtilis", "assay": "In vitro antimicrobial spectrum, agar plate dilution MIC", "type": "cell-based", "settings": "ATCC6633, ATCC 6633, Mueller-Hinton agar, 18 hours, 35° C.", "experimental": "as §2"}, "[1]": {"system": "Staphylococcus epidermidis", "assay": "In vitro antimicrobial spectrum, agar plate dilution MIC", "type": "cell-based", "settings": "CMC 83-56, Mueller-Hinton agar, 18 hours, 35° C.", "experimental": "as §2"}, "Enterococcus": {"system": "Enterococcus", "assay": "In vitro antimicrobial spectrum, agar plate dilution MIC", "type": "cell-based", "settings": "18 h, 35° C.", "experimental": "as §2"}, "Streptococcus sanguis": {"system": "Streptococcus sanguis", "assay": "In vitro antimicrobial spectrum, agar plate dilution MIC", "type": "cell-based", "settings": "G9B (a), Mueller-Hinton agar, 18 hours, 35° C.", "experimental": "as §2"}, "Staphylococcus aureus": {"system": "Staphylococcus aureus", "assay": "In vitro antimicrobial spectrum, agar plate dilution MIC", "type": "cell-based", "settings": "18 h, 35° C.", "experimental": "as §2"}, "Streptococcus faecalis": {"system": "Streptococcus faecalis", "assay": "In vitro antimicrobial spectrum, agar plate dilution MIC", "type": "cell-based", "settings": "Enterococcus faecalis, ATCC29212; ATCC 29212; Mueller-Hinton agar, 18 hours, 35° C.", "experimental": "as §2"}, "Bacillus cereus": {"system": "Bacillus cereus", "assay": "In vitro antimicrobial spectrum, agar plate dilution MIC", "type": "cell-based", "settings": "LL No. 4, Mueller-Hinton agar, 18 hours, 35° C.", "experimental": "as §2"}, "Eimeria tenella": {"system": "Eimeria tenella", "assay": "Anticoccidial evaluation in infected chicks, intestinal lesions", "type": "in vivo, Eimeria tenella; chicks", "settings": "for Percent Chicks with Reduced Lesions E. tenella: 7 days after inoculation", "experimental": "as §1"}, "yeasts": {"system": "yeasts", "assay": "In vitro antimicrobial spectrum, summary", "type": "cell-based", "experimental": "as §2"}, "gram-positive bacteria": {"system": "gram-positive bacteria", "assay": "In vitro antimicrobial spectrum, summary", "type": "cell-based", "experimental": "as §2"}, "[2]": {"system": "Eimeria acervulina and Eimeria tenella (mixed inoculum)", "assay": "Anticoccidial evaluation in infected chicks, survival", "type": "in vivo, Eimeria tenella; chicks", "settings": "for Percent Survival: chicks, 7 days after inoculation", "experimental": "as §1"}}, "data": [{"smiles": "COc1c2c(c(O)c3c(=O)c4c(oc13)[C@@H](O)CC[C@@H]4O)-c1c3c(c4cc(C)[nH]c(=O)c4c1O)OCO[C@H]3C2", "note": "(relative stereo) [LL-D42067β]", "values": [{"measurement": "solubility in water", "setting": "Solubility in water", "value": "relatively insoluble in water"}, {"measurement": "suppression of lesions due to E. acervulina", "setting": "Eimeria acervulina", "value": "significant suppression of lesions"}, {"measurement": "MIC", "setting": "Micrococcus luteus", "value": "≤ 0.06", "unit": "µg/mL"}, {"measurement": "MIC", "setting": "Bacillus subtilis", "value": 4, "unit": "µg/mL"}, {"measurement": "MIC", "setting": "[1]", "value": 0.5, "unit": "µg/mL"}, {"measurement": "MIC", "setting": "Enterococcus; OSU 75-1, Mueller-Hinton agar", "value": 1, "unit": "µg/mL"}, {"measurement": "MIC", "setting": "Enterococcus; SM 77-15, Mueller-Hinton agar", "value": 2, "unit": "µg/mL"}, {"measurement": "MIC", "setting": "Streptococcus sanguis", "value": 0.5, "unit": "µg/mL"}, {"measurement": "MIC", "setting": "Staphylococcus aureus; LL No. 14, Mueller-Hinton agar", "value": 0.5, "unit": "µg/mL"}, {"measurement": "MIC", "setting": "Staphylococcus aureus; LL No. 27, Mueller-Hinton agar", "value": "≤ 0.06", "unit": "µg/mL"}, {"measurement": "MIC", "setting": "Staphylococcus aureus; Smith, Mueller-Hinton agar", "value": 0.5, "unit": "µg/mL"}, {"measurement": "MIC", "setting": "Streptococcus faecalis", "value": 1, "unit": "µg/mL"}, {"measurement": "MIC", "setting": "Bacillus cereus", "value": "≤ 0.06", "unit": "µg/mL"}, {"measurement": "suppression of lesions due to E. tenella", "setting": "Eimeria tenella; 0.5 ppm to 5.0 ppm in diet", "value": "significant suppression of lesions"}, {"measurement": "Percent Chicks with Reduced Lesions E. tenella", "setting": "Eimeria tenella; 0.5 ppm in diet", "value": 0, "unit": "%"}, {"measurement": "Percent Chicks with Reduced Lesions E. tenella", "setting": "Eimeria tenella; 0.75 ppm in diet", "value": 40, "unit": "%"}, {"measurement": "Percent Chicks with Reduced Lesions E. tenella", "setting": "Eimeria tenella; 1.00 ppm in diet", "value": 80, "unit": "%"}, {"measurement": "Percent Chicks with Reduced Lesions E. tenella", "setting": "Eimeria tenella; 2.5 ppm in diet", "value": 100, "unit": "%"}, {"measurement": "Percent Chicks with Reduced Lesions E. tenella", "setting": "Eimeria tenella; 5.0 ppm in diet", "value": 100, "unit": "%"}, {"measurement": "activity against yeasts", "setting": "yeasts", "value": "moderately active"}, {"measurement": "activity versus gram-positive bacteria", "setting": "gram-positive bacteria", "value": "active"}, {"measurement": "survival of infected chicks", "setting": "[2]; 0.5 ppm to 5.0 ppm in diet", "value": "improved survival"}, {"measurement": "Percent Survival", "setting": "[2]; 0.5 ppm in diet", "value": 40, "unit": "%"}, {"measurement": "Percent Survival", "setting": "[2]; 0.75 ppm in diet", "value": 60, "unit": "%"}, {"measurement": "Percent Survival", "setting": "[2]; 1.00 ppm in diet", "value": 80, "unit": "%"}, {"measurement": "Percent Survival", "setting": "[2]; 2.5 ppm in diet", "value": 100, "unit": "%"}, {"measurement": "Percent Survival", "setting": "[2]; 5.0 ppm in diet", "value": 80, "unit": "%"}]}]}
